The subject of series [1] is extensor digitorum longus muscle. The following applies: after three weeks.
Procedure: In addition, a 0.5% MC solution or physiological saline was orally administered to a control group.
Then, the concentration of a muscle toxicity-associated enzyme, such as creatine kinase (CK) and lactate dehydrogenase (LDH) in blood was measured and a histological analysis was performed.
The rats were anesthetized with ether after three weeks of starting the administration for each experimental group; an extensor digitorum longus muscle was removed; fixed in paraffin; and then made into 5 μm coronal sections. The paraffin was removed with xylene, hydrophilicized with alcohol, and then stained with hematoxylin and eosin to observe the tissue through an optical microscope (Olympus Optical, Co., Japan).
For series [2] the following is noted: after oral administration; cited from earlier work.
A short description of series [3]: Frequency of muscular side effects according to dosage (Zocor Tablet Label). It is filed as in vivo. The following applies: dosage of 80 mg compared to 20 mg. From the text: In addition, it is reported that the side effects are increased when the concentration of the statin-based drug in blood is increased in the most cases. […] 16, 2011].

SMILES strings stand for the structures. Like-named read-outs stand apart in the source and are kept apart here.

For the compound `CC(C)c1c(C(=O)Nc2ccccc2)c(-c2ccccc2)c(-c2ccc(F)cc2)n1CC[C@@H](O)C[C@@H](O)CC(=O)O` [Atorvastatin, atorvastatin], the results for the “Degree of Muscle Tissue Damage, Scores (0: Normal, +1: internal nuclei, +2: Myositis, +3: internal nuclei + myositis)” value in series [1] (40 mg/kg atorvastatin alone) and in series [1] (80 mg/kg atorvastatin alone) were 1.0 ± 0.0 and 1.8 ± 0.2, respectively.
On to `CCCCc1nc(Cl)c(CO)n1Cc1ccc(-c2ccccc2-c2nn[nH]n2)cc1` [Losartan, 2-butyl-4 chloro-1-[2-(1H-tetrazol-5-yl)biphenyl-4-ylphenyl]-1H-imidazol-5-methanol], for which the “Time to maximum concentration in the blood (losartan molecules)” value in series [2] is listed as “within one hour”.
In the case of `CCC(C)(C)C(=O)O[C@H]1C[C@@H](C)C=C2C=C[C@H](C)[C@H](CC[C@@H]3C[C@@H](O)CC(=O)O3)[C@H]21` [simvastatin], the “Increase in frequency of muscular side effects, 80 mg compared to 20 mg” value in series [3] is listed as “at least 20 times”.

Source of the values: patent US20130158084A1, “Pharmaceutical Composition Comprising Losartin For Treating or Preventing Statin BasedGrug-Induced Muscle Toxicity” (HANALL BIOPHARMA CO., LTD., priority 2011, published 2013).
